Where two headings read alike, the source gives them in different places.
Columns and labels:
[1] = test system: H1975 (non-small-cell lung cancer cells. EGFR L858K/T790M); assay: Tumor cell proliferation and growth inhibition analysis (Cell Titer-Glo, 72 h), H1975; assay type: cell-based; conditions: Homo sapiens
Description: (§1) […] cell proliferation assay is described as follows.
(§2) Tumor cell proliferation and growth inhibition analysis: H1975 (non-small-cell lung cancer cells. EGFR L858K/T790M) and A431 (human epidermal cancer cells, EGFR wild type) cells were commercially available from the ATCC cell bank. […] The growth medium for A431 cells was DMEM (GIBCO, 11995-065), 10% fetal bovine serum. The influence exerted by the compounds on the proliferation activity of tumor cells was detected by Cell Titer-Glo assay. Tumor cells were exposed to the treatment conditions for 72 h, and the cell density used in each experiment for each cell line was adjusted according to the 72 h cell growth curve. 10 concentration gradients and three-fold dilutions (0.5 nM-10 μM) were set for compounds to be tested, and 3 parallel controls were used for each concentration value.
(§3) Trypsin was used for digesting cells in the logrithmic growth phase to prepare cell suspension, which was counted by a Roche counter and appropriately diluted with complete medium to a final cell concentration of 1˜2×10^3 cell/mL. 384-well plates were seeded with cells, and 22.6 μL were seeded for each well. 3 parallels were set. The plates were incubated in an incubator with 5% CO2 at 37° C. overnight. The compounds were dissolved in DMSO to prepare […] mother liquor. […] 2 μL of compound solution was added into 18 μL of culture medium, and fully mixed. Then 2 μL of mixed solution of compound and culture medium was added into 18 μL of culture medium, and fully mixed. 2.4 μL of mixtures were added into a 384-well plates. […] After cultivation for 72 h, 24 μL of Cell Titer-Glo reagent was added. The contents were mixed on an orbital shaker for 2 min to induce cell lysis. The 384-well plates were incubated at room temperature for 10 min to stabilize the […] signal value. Data was read by Infinite® M1000 PRO (TECAN), and calculated with GraphPad Prism version 5.0. GI50 value was obtained by adjustment using a non-linear regression model of dose response curves.

[2] = test system: A431 (human epidermal cancer cells, EGFR wild type); assay: Tumor cell proliferation and growth inhibition analysis (Cell Titer-Glo, 72 h), A431; assay type: cell-based; conditions: A-431, 72 h exposure
Description: as §1, §2, §3

[3] = NCI-H1975, H1975 cells, 72 h exposure, Cell Titer-Glo, read-out: H1975 GI50

Row | SMILES | GI50 [1, 3] | GI50 [2] | GI50 ([1]; NCI-H1975, 72 h, read-out: H1975 GI50 (nM))
1 | C=CC(=O)Nc1cc(Nc2cc(-n3nc(C)c4ccccc43)ccn2)c(OC)cc1N(C)CCN(C)C [Example 45, N-(2-((2-(dimethylamino)ethyl)(methyl)amino)-4-methoxy-5-((4-(3-methyl-1H-indazol-1-yl)pyridin-2-yl)amino)phenyl)acrylamide] | 7.6 nM | 798 nM | –
2 | C=CC(=O)Nc1cc(Nc2ncnc(-c3cccc4ccn(C)c34)n2)c(OC)cc1N(C)CCN(C)C [Example 37, N-(2-((2-(dimethylamino)ethyl)(methyl)amino)-4-methoxy-5-((4-(1-methyl-1H-indol-7-yl)-1,3,5-triazin-2-yl)amino)phenyl)acrylamide] | 441 nM | 1320 nM | –
3 | C=CC(=O)Nc1cc(Nc2ncnc(-n3cnc4ccccc43)n2)c(OC)cc1N(C)CCN(C)C [Example 39, N-(5-((4-(1H-benzo[d]imidazol-1-yl)-1,3,5-triazin-2-yl)amino)-2-((2-(dimethylamino)ethyl)(methyl)amino)-4-methoxyphenyl)acrylamide] | 21.2 nM | 15.2 nM | –
4 | C=CC(=O)Nc1cc(Nc2nccc(-c3noc4ccccc34)n2)c(OC(F)F)cc1N1CC2(CCCN2C)C1 [Example 11, N-(5-((4-(benzo[d]isoxazol-3-yl)pyrimidin-2-yl)amino)-4-(difluoromethoxy)-2-(5-methyl-2,5-diazaspiro[3.4]oct-2-yl)phenyl)acrylamide] | 36 nM | 690 nM | –
5 | C=CC(=O)Nc1cc(Nc2nccc(-c3cn(C)c4cc(C)sc34)n2)c(OC)cc1N(C)CCN(C)C [Example 30] | 21.5 nM | 943 nM | –
6 | C=CC(=O)Nc1cc(Nc2nccc(-c3noc4ccccc34)n2)c(OC(F)F)cc1N1CCC[C@H]1CN(C)C [Example 10] | 285 nM | > 1000 nM | –
7 | C=CC(=O)Nc1cc(Nc2nccc(-c3noc4ccccc34)n2)c(OC)cc1N1CCN(C)CC1 [Example 2, N-(5-((4-(benzo[d]isoxazol-3-yl)pyrimidin-2-yl)amino)-4-methoxy-2-(4-methylpiperazin-1-yl)phenyl)acrylamide] | 168 nM | 728 nM | –
8 | C=CC(=O)Nc1cc(Nc2ncnc(-c3cccc4cc[nH]c34)n2)c(OC)cc1N1CC2(CCCN2C)C1 [Example 36, N-(5-((4-(1H-indol-7-yl)-1,3,5-triazin-2-yl)amino)-4-methoxy-2-(5-methyl-2,5-diazaspiro[3.4]oct-2-yl)phenyl)acrylamide] | 114 nM | 1120 nM | –
9 | C=CC(=O)Nc1cc(Nc2nccc(-c3cn(C)c4ccccc34)n2)c(OC)cc1N(C)CCN(C)C [AZD9291, reference compound] | – | – | 2.8 nM
10 | C=CC(=O)Nc1cc(Nc2nccc(-c3nn(C)c4ccsc34)n2)c(OC(F)F)cc1N1CC2(CCCN2C)C1 [Example 29, N-(4-(difluoromethoxy)-5-((4-(1-methyl-1H-thieno[3,2-c]pyrazol-3-yl)pyrimidin-2-yl)amino)-2-(5-methyl-2,5-diazaspiro[3.4]oct-2-yl)phenyl)acrylamide] | 60.3 nM | > 1000 nM | –
11 | C=CC(=O)Nc1cc(Nc2nccc(-c3cn(C)c4cccnc34)n2)c(OC(F)F)cc1N(C)CCN(C)C [Example 18] | 6.7 nM | 296 nM | –
12 | C=CC(=O)Nc1cc(Nc2nccc(-c3noc4ccccc34)n2)c(OC(F)F)cc1N1CCN(C)CC1 [Example 7, N-(5-((4-(benzo[d]isoxazol-3-yl)pyrimidin-2-yl)amino)-4-(difluoromethoxy)-2-(4-methylpiperazin-1-yl)phenyl)acrylamide] | 49 nM | ~1720 nM | –
13 | C=CC(=O)Nc1cc(Nc2nccc(-c3cn(C)c4cccnc34)n2)c(OC)cc1N1CCN(C)CC1 [Example 13, N-(4-methoxy-5-((4-(1-methyl-H-pyrrolo[3,2-b]pyridin-3-yl)pyrimidin-2-yl)amino)-2-(4-methylpiperazin-1-yl)phenyl)acrylamide] | 175 nM | 1560 nM | –
14 | C=CC(=O)Nc1cc(Nc2cc(-c3cnc4ccccn34)ccn2)c(OC)cc1N(C)CCN(C)C [Example 44, N-(2-((2-(dimethylamino)ethyl)(methyl)amino)-5-((4-(imidazo[1,2-a]pyridin-3-yl)pyridin-2-yl)amino)-4-methoxyphenyl)acrylamide] | 104 nM | 638 nM | –
15 | C=CC(=O)Nc1cc(Nc2nccc(-c3noc4ccccc34)n2)c(OC)cc1N1CCC[C@H]1CN(C)C [Example 4, (S)—N-(5-((4-(benzo[d]isoxazol-3-yl)pyrimidin-2-yl)amino)-2-(2-((dimethno)methyl)pyrrolidin-1-yl)-4-methoxyphenyl)acrylamide] | 844 nM | ~63400 nM | –
16 | C=CC(=O)Nc1cc(Nc2nccc(-c3noc4ccccc34)n2)c(OC)cc1N(C)CCN(C)C [Example 1] | 7.3 nM | ~110 nM | –
17 | C=CC(=O)Nc1cc(Nc2nccc(-c3cn(C)c4cccnc34)n2)c(OC)cc1N1CCC(N(C)C)CC1 [Example 15, N-(2-(4-(dimethylamino)piperidin-1-yl)-4-methoxy-5-((4-(1-methyl-1H-pyrrolo[3,2-b]pyridin-3-yl)pyrimidin-2-yl)amino)phenyl)acrylamide] | 77.5 nM | 5370 nM | –
18 | C=CC(=O)Nc1cc(Nc2cc(-c3cn(C)c4ncccc34)ccn2)c(OC)cc1N(C)CCN(C)C [Example 40, N-(2-((2-(dimethylamino)ethyl)(methyl)amino)-4-methoxy-5-((4-(1-methyl-1H-pyrrolo[2,3-b]pyridin-3-yl)pyridin-2-yl)amino)phenyl)acrylamide] | 28.9 nM | 198 nM | –
19 | C=CC(=O)Nc1cc(Nc2ncnc(-c3cccc4cc[nH]c34)n2)c(OC(F)F)cc1N(C)CCN(C)C [Example 33, N-(5-((4-(1H-indol-7-yl)-1,3,5-triazin-2-yl)amino)-4-(difluoromethoxy)-2-((2-(dimethylamino)ethyl)(methyl)amino)phenyl)acrylamide] | 9.8 nM | 100 nM | –
20 | C=CC(=O)Nc1cc(Nc2cc(-c3nn(C)c4cccnc34)ccn2)c(OC)cc1N(C)CCN(C)C [Example 42, N-(2-((2-(dimethylamino)ethyl)(methyl)amino)-4-methoxy-5-((4-(1-methyl-1H-pyrazolo[4,3-b]pyridin-3-yl)pyridin-2-yl)amino)phenyl)acrylamide] | 16.3 nM | 264 nM | –
21 | C=CC(=O)Nc1cc(Nc2nccc(-c3noc4ccccc34)n2)c(OC)cc1N1CCC(N(C)C)CC1 [Example 3, N-(5-((4-(benzo[d]isoxazol-3-yl)pyrimidin-2-yl)amino)-2-(4-(dimethylamino)piperidin-1-yl)-4-methoxyphenyl)acrylamide] | 82.4 nM | 1240 nM | –
22 | C=CC(=O)Nc1cc(Nc2nccc(-c3cn(C)c4cccnc34)n2)c(OC(F)F)cc1N1CC(N(C)C)C1 [Example 20, N-(4-(difluoromethoxy)-2-(3-(dimethylamino)azetidin-1-yl)-5-((4-(1-methyl-1H-pyrrolo[3,2-b]pyridin-3-yl)pyrimidin-2-yl)amino)phenyl)acrylamide] | > 1000 nM | > 1000 nM | –
23 | C=CC(=O)Nc1cc(Nc2nccc(-c3nn(C)c4ccsc34)n2)c(OC(F)F)cc1N1CCC(N(C)C)CC1 [Example 28] | 261 nM | 5300 nM | –
24 | C=CC(=O)Nc1cc(Nc2nccc(-c3nn(C)c4ccsc34)n2)c(OC(F)F)cc1N1CCN(C)CC1 [Example 26, N-(4-(difluoromethoxy)-5-((4-(1-methyl-1H-thieno[3,2-c]pyrazol-3-yl)pyrimidin-2-yl)amino)-2-(4-methylpiperazin-1-yl)phenyl)acrylamide] | 296 nM | 1130 nM | –
25 | C=CC(=O)Nc1cc(Nc2nccc(-c3nn(C)c4ccsc34)n2)c(OC)cc1N(C)CCN(C)C [Example 24, N-(2-((2-(dimethylamino)ethyl)(methyl)amino)-4-methoxy-5-((4-(1-methyl-1H-thieno[3,2-c]pyrazol-3-yl)pyrimidin-2-yl)amino)phenyl)acrylamide] | 10.7 nM | 209 nM | –
26 | C=CC(=O)Nc1cc(Nc2nccc(-c3noc4ccccc34)n2)c(OC(F)F)cc1N1CC(N(C)C)C1 [Example 8, N-(5-((4-(benzo[d]isoxazol-3-yl)pyrimidin-2-yl)amino)-4-(difluoromethoxy)-2-(3-(dimethylamino)azetidin-1-yl)phenyl)acylamide] | 26.1 nM | 299 nM | –
27 | C=CC(=O)Nc1cc(Nc2nccc(-c3nn(C)c4ccsc34)n2)c(OC(F)F)cc1N1CC(N(C)C)C1 [Example 27, N-(4-(difluoromethoxy)-2-(3-(dimethylamino)azetidin-1-yl)-5-((4-(1-methyl-1H-thieno[3,2-c]pyrazol-3-yl)pyrimidin-2-yl)amino)phenyl)acrylamide] | 1100 nM | 2540 nM | –

Reference: US10377747B2, “2-arylamino pyridine, pyrimidine or triazine derivatives, preparation method and use thereof” (Wuxi Shuangliang Biotechnology Co., Ltd., priority 2015, dated 2019)
